Laboratory results as given in patent publication US20260256753A1, “USE OF AN OREXIN 2 RECEPTOR AGONIST FOR IMPROVING RESPIRATORY FUNCTION DURING SLEEP” (TAKEDA PHARMACEUTICAL COMPANY LIMITED, priority 2023, published 2026).

Experiments:
[1] = Plasma concentration of Compound C after intravenous and oral administration in rats; type: in vivo, rat; conditions: intravenous 0.3 and 1 mg/kg versus oral 3 and 10 mg/kg, respectively
Method: Due to technical feasibility of the experiment, anesthetized rats were used for EMG recording of the diaphragm. Compound C was administered intravenously to anesthetized rats in this experiment. To understand the relationship between the plasma effective concentration of Compound C for arousal and that for activation of the diaphragm, plasma concentration of Compound C after intravenous administration was measured. The maximum plasma concentrations of Compound C after intravenous administration at 0.3 and 1 mg/kg were similar to those after oral administration at 3 and 10 mg/kg, respectively.

OX2R = target: T1, OX2R (Homo sapiens, UniProt O43614); conditions: OX2R-expressed recombinant cells; cited from earlier work
T1 sequence (O43614 1-444): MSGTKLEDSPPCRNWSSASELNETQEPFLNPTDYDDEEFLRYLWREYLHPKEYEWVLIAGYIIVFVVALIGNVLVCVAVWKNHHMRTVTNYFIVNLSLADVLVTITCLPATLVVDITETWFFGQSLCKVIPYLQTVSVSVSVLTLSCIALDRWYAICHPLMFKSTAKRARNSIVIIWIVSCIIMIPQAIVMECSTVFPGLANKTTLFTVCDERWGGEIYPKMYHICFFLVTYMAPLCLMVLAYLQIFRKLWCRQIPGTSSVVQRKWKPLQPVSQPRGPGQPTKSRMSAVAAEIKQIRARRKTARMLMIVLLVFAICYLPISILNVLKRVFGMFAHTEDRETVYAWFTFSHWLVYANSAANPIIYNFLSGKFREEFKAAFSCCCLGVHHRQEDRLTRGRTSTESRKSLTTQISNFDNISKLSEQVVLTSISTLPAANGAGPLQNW

[2] = tested on: patients with obstructive sleep apnea; assay: Phase 1b crossover study in obstructive sleep apnea: upper airway collapsibility index (UACI) during wakefulness; type: in vivo, human
Method: A phase 1b, randomized, double-blind, placebo-controlled, 3-period crossover study was conducted to evaluate the safety, tolerability, pharmacodynamic, and pharmacokinetic effects of overnight intravenous COMPOUND A in patients with obstructive sleep apnea (OSA). This study was planned to further evaluate COMPOUND A intravenous administration (IV) in adults with OSA, hypothesizing that nonwake-promoting exposures of COMPOUND A would increase genioglossal muscle tone and increase airway patency via the increasing activity of hypoglossal motoneurons. The main goal of this study was to evaluate the mechanistic potential of OX2R agonism for treatment of OSA using COMPOUND A IV infusion to determine appropriate use in future trials with an oral OX2R agonist.
Eligible participants were randomly assigned (in a double-blinded manner) to 1 of 6 treatment sequences. In each treatment period, participants underwent 3 UACI assessments, a 10-minute evaluation that tested the key biological mechanism that causes OSA (as described by Osman, A. M., et al., 2019, Sleep, 42 (7), 1-10), followed by an overnight polysomnography (PSG). After the first baseline UACI assessment (U1), an IV infusion regimen of COMPOUND A or placebo was administered over approximately 10 hours to achieve specific plasma concentrations to evaluate the effect of COMPOUND A on the UACI and PSG metrics. […]

**Q.** For `CC(C)(O)C(=O)N1CC(F)(F)[C@H](NS(C)(=O)=O)[C@@H]1Cc1cccc(-c2cc(F)cc(F)c2)c1F` [Compound C, N-{(2S,3R)-4,4-difluoro-1-(2-hydroxy-2-methylpropanoyl)-2-[(2,3′,5′-trifluoro[1,1′-biphenyl]-3-yl)methyl]pyrrolidin-3-yl}methanesulfonamide], which “maximum plasma concentrations after intravenous administration compared with oral administration” value [1] is on record?
**A.** The value was “similar”.

**Q.** What does the source list for `COC(=O)N1CCC[C@H](NS(C)(=O)=O)[C@@H]1CO[C@H]1CC[C@@H](c2ccccc2)CC1` (relative stereo) [Compound A, methyl(2R,3S)-3-((methylsulfonyl)amino)-2-(((cis-4-phenylcyclohexyl)oxy)methyl) piperidine-1-carboxylate]?
**A.** recruitment of β-arrestins (OX2R): promote recruitment of β-arrestins; upper airway collapsibility as measured by UACI [2]: no consistent improvement
